Measurements from PubChem BioAssay (NCI).
Several values for one entry are separate records, joined by “and”; a condition that tells them apart may be missing. Identical values can stand only once.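 All cell lines were grown in 96-well plates and treated with compound for 48 hours. GI50 is the concentration that inhibits growth by half. Definition used: TGI = concentration required for complete inhibition of growth.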

How the values were obtained:
Test in all cases: NCI-60 cell line screen, 48 h
[1] = tested on: NCI-H522 lung
[2] = tested on: MALME-3M melanoma
[3] = tested on: IGROV1 ovarian
[4] = tested on: RXF 393 renal
[5] = tested on: MCF7 breast
[6] = tested on: MDA-MB-231 breast
[7] = tested on: TK-10 renal
[8] = tested on: K-562 leukemia
[9] = tested on: 786-0 renal
[10] = tested on: RPMI-8226 leukemia

Row | SMILES | GI50 [1] | TGI [1] | GI50 [2] | TGI [2] | GI50 [3] | TGI [3] | GI50 [4] | TGI [4] | GI50 [5] | TGI [5] | GI50 [6] | TGI [6] | GI50 [7] | TGI [7] | GI50 [8] | TGI [8] | GI50 [9] | TGI [9] | GI50 [10] | TGI [10]
1 | CCNNC(=O)[C@@H]1[C@H](c2cc(OC)c(OC)c(OC)c2)c2cc3c(cc2[C@H](O)[C@H]1CO)OCO3 | 0.288 µM | 0.833 µM | > 20.5 µM | > 100 µM | 0.59 µM | > 100 µM | 0.34 µM | > 100 µM | 0.36 µM | > 100 µM | 0.5 µM | > 100 µM | 30.8 µM | > 100 µM | 0.349 µM | > 100 µM | 0.495 µM | > 100 µM | 0.407 µM | > 100 µM
2 | Cc1cc(N(CCCNc2ccnc3cc(Cl)ccc23)Cc2ccc3c(c2)OCO3)nc(N2CCCCC2)n1 | 1.89 µM | 4.19 µM | 1.97 µM | 3.75 µM | 1.58 µM | 3.87 µM | 1.52 µM | 3.12 µM | 1.77 µM | 4.84 µM | 1.88 µM | 4.06 µM | 1.91 µM | 4.01 µM | – | – | 1.57 µM | 3.09 µM | 1.91 µM | 4.93 µM
3 | Cn1cnc2c(F)c(Nc3ccc(Br)cc3F)c(C(=O)NOCCO)cc21 | > 63.2 µM | > 100 µM | 0.0136 µM and < 0.01 µM | 0.138 µM and 0.0486 µM | – | > 100 µM | 0.455 µM and 4.39 µM | > 96.2 µM | > 100 µM | > 100 µM | 0.111 µM and 0.837 µM | > 100 µM | 3.07 µM and 1.34 µM | > 100 µM | 1.33 µM and 10.8 µM | > 100 µM | > 100 µM | > 100 µM | > 56.4 µM | > 100 µM
4 | FC(F)(F)c1cccc2c(SCCc3n[nH]c(=S)o3)ccnc12 | 22.6 µM | 90 µM | 44.5 µM | > 100 µM | 23.4 µM | > 100 µM | 57 µM | > 100 µM | 41.6 µM | > 100 µM | 43.1 µM | > 100 µM | 66.6 µM | > 100 µM | 47.4 µM | > 100 µM | > 100 µM | > 100 µM | 30.3 µM | > 100 µM
5 | CN1C[C@@H]2Cn3c(c(C4=C(c5cn(C)c6ccccc56)C(=O)NC4=O)c4ccccc43)C[C@H]2C1 | 4.16 µM and 3.63 µM | 8.15 µM and 7.81 µM | 3.78 µM and 3.89 µM | 7.36 µM and 8.03 µM | 5.73 µM and 6.57 µM | 11 µM and 15 µM | 3.53 µM and 3.17 µM | 7.19 µM and 6.68 µM | 3.6 µM and 3.15 µM | 8.7 µM and 9.66 µM | 4.37 µM and 4.1 µM | 8.85 µM and 9.22 µM | 3.5 µM and 3.74 µM | 7.6 µM and 8.41 µM | 4.9 µM and 2.37 µM | 10.4 µM and 6.88 µM | 4.75 µM and 4.57 µM | 9.33 µM and 8.9 µM | 5.56 µM and 4.7 µM | 11.9 µM and 10.3 µM
6 | O=C1c2ccccc2-c2c1c1ccc([N+](=O)[O-])cc1c(=O)n2CCCNCCO | 0.154 µM | 1.91 µM | 0.341 µM | 1.62 µM | 0.515 µM | 2.45 µM | 1.87 µM | 3.88 µM | – | 1.31 µM | 1.95 µM | 3.83 µM | 1.37 µM | 4.1 µM | 0.0359 µM | 1.24 µM | 0.0479 µM | 0.43 µM | 0.0359 µM | 0.239 µM
7 | O=C(N/N=C/c1ccc(Cl)cc1Cl)c1ccc2nc(-c3ccc(Cl)cc3)[nH]c2c1 | 2.24 µM | 5.85 µM | 1.55 µM | 3.15 µM | 1.5 µM | 2.98 µM | 1.61 µM | 3.27 µM | 1.15 µM | 2.56 µM | 1.85 µM | 3.77 µM | 2.06 µM | 4.3 µM | 0.969 µM | 3.23 µM | 1.79 µM | 3.48 µM | 1.16 µM | 3.51 µM
8 | OCC(CCc1c[nH]c2ccccc12)c1c[nH]c2ccccc12 (stereo unspecified) | – | 29.4 µM | – | 32.2 µM | – | 27.5 µM | – | 30.8 µM | – | 35 µM | – | 27.6 µM | – | 37.8 µM | – | 67.6 µM | – | 29.5 µM | – | 73.5 µM
9 | COc1cc2c3c(n(CCCBr)c(=O)c2cc1OC)-c1ccc(F)cc1C3=O | 4.9 µM | 36.3 µM | 43 µM | > 100 µM | – | – | 34.4 µM | > 100 µM | 4.1 µM | > 100 µM | 66.3 µM | > 100 µM | 32.7 µM | > 100 µM | 16.3 µM | > 100 µM | 4.73 µM | 17.9 µM | 12.6 µM | 38.1 µM
10 | CC(C)C[C@H](NC(=O)[C@H](Cc1cccc2ccccc12)NS(=O)(=O)c1cccc2cccnc12)B(O)O | – | 0.0352 µM | 0.000588 µM | 0.0175 µM and 0.0208 µM | 0.0331 µM | 0.298 µM and 0.301 µM | 0.00919 µM | 0.0273 µM and < 0.0237 µM | 0.000525 µM | > 30.5 µM | – | 0.0567 µM and 0.0597 µM | 0.036 µM | 0.351 µM | 0.0094 µM | 0.163 µM | 0.0495 µM | 12.8 µM | 0.000296 µM | 0.000934 µM
11 | COc1cc(C2CC(=O)Nc3c2ccc2ccccc32)cc(Br)c1OC (stereo unspecified) | 0.41 µM | 8.42 µM | 0.582 µM | > 70.6 µM | 0.86 µM | > 42.3 µM | 0.78 µM | 7.05 µM | 0.343 µM | > 40.6 µM | 2.83 µM | > 46.7 µM | 13.4 µM | > 100 µM | 0.349 µM | > 75.7 µM | 0.569 µM | > 39.3 µM | 0.562 µM | 24.1 µM
12 | C=C1C(OC/C=C/COC2O[C@@H]3O[C@@]4(C)CC[C@H]5[C@H](C)CC[C@@H](C2=C)[C@@]35OO4)O[C@@H]2O[C@@]3(C)CC[C@H]4[C@H](C)CC[C@@H]1[C@@]24OO3 (stereo partly specified) | 5.17 µM | 69.6 µM | 0.301 µM | 18.4 µM | 1.6 µM | > 36.6 µM | 0.166 µM | 5.93 µM | 0.0801 µM | 16.2 µM | 11.4 µM | 51.3 µM | 0.492 µM | 16.9 µM | 0.0949 µM | > 67.3 µM | 0.578 µM | 18.7 µM | – | 10.6 µM
13 | O=c1oc2c3ccc4cnccc4c3[nH]c2c2ccccc12 | 11.8 µM | 77.1 µM | 18.9 µM | 45.1 µM | 12.7 µM | > 100 µM | 5.72 µM | 19.4 µM | 2.24 µM | 6.17 µM | 16.9 µM | 38.5 µM | 43.8 µM | > 100 µM | 27.7 µM | > 100 µM | 4.47 µM | 17.6 µM | 7.94 µM | 33.4 µM
